Values quoted from earlier work in patent publication US8012958B2, “Methods for treating anxiety related disorders” (Hythlam, Inc., priority 2005, dated 2011).
Read-outs that look alike come from different tables or passages of the source.

Legend:
[1] = IM 2 to 3 mg (0.02 to 0.05 mg/kg); patients 60 years or older without concomitant narcotics
GABAA receptors = conditions: 3 μM flumazenil; ethanol withdrawn cells
[2] = tested on: GABAA receptors that contain α4 or α6 subunits
[3] = tested on: GABAA receptor α4 subunit mRNA; conditions: for amount of α4 subunit mRNA after withdrawal of the drug: withdrawal after long-term exposure
[4] = biological target: T1, monoamine oxidase A (MAO-A) (Homo sapiens, UniProt P21397); conditions: single 300 mg dose
T1 sequence (P21397 1-527): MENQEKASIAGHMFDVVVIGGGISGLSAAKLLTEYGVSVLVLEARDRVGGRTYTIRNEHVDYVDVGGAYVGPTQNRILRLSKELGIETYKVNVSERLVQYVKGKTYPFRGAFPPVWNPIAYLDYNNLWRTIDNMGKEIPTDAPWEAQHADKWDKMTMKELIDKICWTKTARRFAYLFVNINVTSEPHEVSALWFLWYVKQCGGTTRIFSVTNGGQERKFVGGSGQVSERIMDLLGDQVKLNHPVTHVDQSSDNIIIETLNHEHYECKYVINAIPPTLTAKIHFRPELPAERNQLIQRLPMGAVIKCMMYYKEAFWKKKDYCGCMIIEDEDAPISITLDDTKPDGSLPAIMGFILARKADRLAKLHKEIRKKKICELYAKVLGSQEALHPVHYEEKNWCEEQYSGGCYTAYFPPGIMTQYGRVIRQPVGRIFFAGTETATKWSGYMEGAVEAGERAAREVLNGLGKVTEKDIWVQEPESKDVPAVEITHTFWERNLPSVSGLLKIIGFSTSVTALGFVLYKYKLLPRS

[5] = biological target: T2, monoamine oxidase B (MAO-B) (Homo sapiens, UniProt P27338); conditions: single 300 mg dose
T2 sequence (P27338 1-520): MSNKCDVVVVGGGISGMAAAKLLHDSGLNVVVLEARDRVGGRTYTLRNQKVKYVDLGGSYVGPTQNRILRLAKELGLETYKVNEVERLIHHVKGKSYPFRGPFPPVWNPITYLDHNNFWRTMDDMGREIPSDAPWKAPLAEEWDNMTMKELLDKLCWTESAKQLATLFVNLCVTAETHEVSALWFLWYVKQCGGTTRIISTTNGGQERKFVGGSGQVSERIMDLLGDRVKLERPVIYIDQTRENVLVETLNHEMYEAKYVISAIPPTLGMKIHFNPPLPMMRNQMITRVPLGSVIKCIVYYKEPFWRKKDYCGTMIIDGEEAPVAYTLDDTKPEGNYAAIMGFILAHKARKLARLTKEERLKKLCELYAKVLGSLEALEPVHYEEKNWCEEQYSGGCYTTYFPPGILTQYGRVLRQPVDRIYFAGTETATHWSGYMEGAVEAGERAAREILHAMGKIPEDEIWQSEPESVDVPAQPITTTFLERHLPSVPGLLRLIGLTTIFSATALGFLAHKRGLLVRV

[6] = not given; remark: listed apart in the source
[7] = overdose

Cc1ncc2n1-c1ccc(Cl)cc1C(c1ccccc1F)=NC2 [MIDAZOLAM]
sedation during the preoperative period [1]: (0.02 to 0.05 mg/kg) of VERSED produced adequate sedation

CCOC(=O)c1ncn2c1CN(C)C(=O)c1cc(F)ccc1-2 [flumazenil, ethyl 8-fluoro-5,6-dihydro-5-methyl-6-oxo-4H-imidazo-[1,5-a][1,4]benzodiazepine-3-carboxylate]
modulation of the GABA evoked Cl- current (GABAA receptors): potentiates the GABA evoked Cl— current | adverse effect on the nervous system (human, in vivo): causing increased agitation and anxiety

C[C@]12C=CC(=O)N[C@@H]1CC[C@@H]1[C@@H]2CC[C@]2(C)[C@@H](C(=O)Nc3cc(C(F)(F)F)ccc3C(F)(F)F)CC[C@@H]12 [DUTASTERIDE, (5α,17β)-N-{2,5 bis(trifluoromethyl)phenyl}-3-oxo-4-azaandrost-1-ene-17-carboxamide]
adverse effects compared with therapeutic dose of 0.5 mg (clinical study, 5 mg daily for 6 months): subjects for 6 months with no additional adverse effects to those

CN1C(=O)CN=C(c2ccccc2)c2cc(Cl)ccc21 [diazepam]
affinity for or efficacy at GABAA receptors that contain α4 or α6 subunits [2]: no affinity for or efficacy | effect on the ethanol withdrawal-induced increase in abundance of α4 subunit mRNA ([3]; exposure at the time of ethanol withdrawal): antagonizes the withdrawal-induced increase | amount of α4 subunit mRNA after withdrawal of the drug [3]: marked increase

O=C(NCCN1CCOCC1)c1ccc(Cl)cc1 [Moclobemide]
inhibition of monoamine oxidase A (MAO-A) [4]: A single 300 mg dose of moclobemide inhibits 80% of monoamine | inhibition of monoamine oxidase B (MAO-B) [5]: oxidase A (MAO-A) and 30% of monoamine oxidase B (MAO-B),

COc1ccc2c3c1O[C@H]1[C@@H](O)C=C[C@H]4[C@@H](C2)N(C)CC[C@@]341 [CODEINE]
dose about equal to 30 mg (oral) of morphine ([6]; oral): 200 mg (oral) of codeine is about equal to 30 mg (oral) of morphine.

CCCCC1(CC)C(=O)NC(=O)NC1=O [BUTOBARBITAL]
dose equivalent to 10 mg of Diazepam ([6]; butobarbital): 50 mg of Butobarbital is equivalent to 10 mg of Diazepam; Acc. to

CCC1(c2ccccc2)C(=O)NC(=O)NC1=O.CNC(C)CC1CCCCC1 [BARBEXACLONE]
dose equivalent to 60 mg of phenobarbital ([6]; in vivo): 100 mg of barbexaclone is equivalent to 60 mg of phenobarbital.

CCCC(C)(COC(N)=O)COC(N)=O [MEPROBROMATE]
ingested amount with which survival has been reported (as much as) [7]: much as 40 g.

Cc1ccc(-c2nc3ccc(C)cn3c2CC(=O)N(C)C)cc1 [zolpidem]
amount of α4 subunit mRNA after withdrawal of the drug [3]: marked increase

CCN(C(C)=O)c1cccc(-c2ccnc3c(C#N)cnn23)c1 [ZALPELON]
amount of α4 subunit mRNA after withdrawal of the drug [3]: marked increase

CC1CN2CC(=O)Nc3ccc(Cl)cc3C2(c2ccccc2)O1 (stereo not shown) [OXAZOLAM]
dose equivalent to 10 mg of Diazepam ([6]; oxazolam): 20 mg is equivalent to 10 mg of Diazepam.
